In one series the test system is gastric ulcer. The settings on record: 100 mg doses seven times a day, versus placebo; cited from earlier work.
The test system of another series is duodenal ulcer. The note with it: 100 mg doses seven times a day, cited from earlier work.
For series [1] the following is noted: cited from earlier work.
Series [2] relates to pepsin. The settings on record: cited from earlier work.
The subject of series [3] is pepsin. The note with it: in the feed at >50 ppm; cited from earlier work.
Series [4] has as its system pepsin. The experiment in a line: 18 hour pylorus ligated rat. The note with it: 20 mg/kg po. It is filed as in vivo.
For series [5] the following is noted: daily oral doses of 700 mg for up to three months; cited from earlier work.
Series [6] deals with pepsin. The settings on record: duodenal ulcer; cited from earlier work.
The subject of series [7] is pepsin. The settings on record: patients with ulcer dyspepsia; cited from earlier work.
The subject of the next series is stomach ulcers. The settings on record: rat, in vivo; cited from earlier work.
For series [8] the following is noted: all animal species studied; cited from earlier work.

SMILES strings stand for the structures. Like-named read-outs stand apart in the source and are kept apart here. Where a SMILES comes first, the peptide text is derived from it. [ ]: non-standard residue; d: D form. The star is where a group is joined. Sta = CC(C)C[C@H](N)[C@@H](O)CC(=O)O; Isovaleryl = CC(C)CC(=O)*

This is an account of results in patent EP0099121A2, “Pharmaceutical compositions” (Bristol-Myers Company, priority 1982, dated 1984).

Consider `CC(C)CC(=O)N[C@H](C(=O)N[C@H](C(=O)N[C@@H](CC(C)C)[C@@H](O)CC(=O)N[C@@H](C)C(=O)N[C@@H](CC(C)C)[C@@H](O)CC(=O)O)C(C)C)C(C)C` [pepstatin] (Isovaleryl-VV[Sta]A[Sta]-OH), for which, in the series on gastric ulcer, the “healing or symptomatology of gastric ulcer” value is given as “not able to detect any influence”. The “healing or symptomatology of duodenal ulcer” value with duodenal ulcer (versus placebo) was “no significant difference between pepstatin and placebo”. The “duration of inhibition of peptic activity of gastric juice” value in the series with duodenal ulcer is given as 18 hours a day. Moreover, the “excreted in the feces” value in series [1] (animal studies, oral, within 72 hours) is “more than 90%”. The “absorption upon oral administration” value in series [1] is “essentially unabsorbed”. Moreover, in series [1] (listed as Pepstatin), the “absorption upon oral administration” value is given as “only poorly absorbed”. The “duration of pepsin suppression” value with pepsin [2] is reported as “about 1 hours”. In the series on pepsin [3], the occurrence of ulcers entry was “prevented the occurrence of ulcers” and the “pepsin activity in the gastric juice” value was “inhibited pepsin activity”. Besides, in the series with pepsin [4], the pepsin activity result is on record as “completely inhibited” and the ulcer formation result is given as “antagonized ulcer formation”. Besides, in [5], the side effects result is given as “no side effects were observed”. Moreover, the “benefit in patients with duodenal ulcer” value in the series with pepsin [6] is given as “ineffective”. In the series on pepsin [7], the “effect on the gastric acidity” value is “no effect” and the gastric peptic activity entry is listed as “inhibits gastric peptic activity”. Further, the “formation of stomach ulcers” value with stomach ulcers is “prevent the formation of stomach ulcers”. Moreover, the LD50 result in series [8] was “exceeded 3000 mg/kg”.
